Assay results from PubChem BioAssay (NCI).
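Exposure lasted 48 hours, with cells grown in 96-well plates and compounds tested at five concentrations. Here, GI50 denotes the concentration required for 50% inhibition of growth. TGI: total growth inhibition.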

Legend:
Assay in all cases: NCI tumour cell line growth inhibition, 48 h
CAKI-1 renal = tested on: CAKI-1 renal
DLD-1 colon = tested on: DLD-1 colon
DMS 273 small cell lung = tested on: DMS 273 small cell lung
EKVX NSCLC = tested on: EKVX NSCLC
KM20L2 colon = tested on: KM20L2 colon
NCI-H226 lung = tested on: NCI-H226 lung
SNB-75 CNS = tested on: SNB-75 CNS
SNB-78 CNS = tested on: SNB-78 CNS
TK-10 renal = tested on: TK-10 renal
HOP-92 NSCLC = tested on: HOP-92 NSCLC
DU-145 prostate = tested on: DU-145 prostate
HS 578T breast = tested on: HS 578T breast

Row | Structure (SMILES) | TGI (CAKI-1 renal) [µM] | TGI (DLD-1 colon) [µM] | TGI (DMS 273 small cell lung) [µM] | TGI (EKVX NSCLC) [µM] | TGI (KM20L2 colon) [µM] | TGI (NCI-H226 lung) [µM] | TGI (SNB-75 CNS) [µM] | TGI (SNB-78 CNS) [µM] | TGI (TK-10 renal) [µM] | TGI (HOP-92 NSCLC) [µM] | GI50 (CAKI-1 renal) [µM] | GI50 (DU-145 prostate) [µM] | TGI (DU-145 prostate) [µM] | GI50 (EKVX NSCLC) [µM] | GI50 (HOP-92 NSCLC) [µM] | GI50 (HS 578T breast) [µM] | TGI (HS 578T breast) [µM] | GI50 (NCI-H226 lung) [µM] | GI50 (SNB-75 CNS) [µM] | GI50 (TK-10 renal) [µM]
1 | CCOC(=O)C1=C(C(=O)OCC)C2c3ccccc3C=CN2C(C(=O)OCC)=C(SC)S1 (configuration not stated) | > 100 | > 100 | > 100 | > 100 | > 100 | > 100 | > 100 | > 100 | > 100 | – | – | – | – | – | – | – | – | – | – | –
2 | O=S(=O)(N/N=C/c1cccc(/C=N/NS(=O)(=O)c2ccccc2)c1)c1ccccc1 | – | > 100 | > 100 | > 100 | > 100 | > 100 | > 100 | > 100 | > 100 | 97.2 | – | – | – | – | – | – | – | – | – | –
3 | CCCCN(CCCC)C(=O)C(=O)C(C(=O)c1ccc(OC)cc1)c1ccc(OC)cc1 (configuration not stated) | > 100 | > 100 | – | > 100 | > 100 | > 100 | – | > 100 | > 100 | > 100 | – | – | – | – | – | – | – | – | – | –
4 | COc1ccc(OC)c(N2CC(N)C2=O)c1 (configuration not stated) | – | – | > 100 | > 100 | > 100 | > 100 | > 100 | – | > 100 | > 100 | – | – | – | – | – | – | – | – | – | –
5 | Cc1ccc(Oc2ccc(C)cc2N)cc1 | – | > 100 | > 100 | > 100 | > 100 | > 100 | 73.3 | > 100 | > 100 | 95.3 | – | – | – | – | – | – | – | – | – | –
6 | CC(=O)NNc1nc(C)c(C(=O)/C=C/c2ccc(NC(C)=O)cc2)s1 | > 100 | > 100 | > 100 | > 100 | > 100 | – | > 100 | > 100 | > 100 | > 100 | – | – | – | – | – | – | – | – | – | –
7 | CC(=O)O/N=C(/C)c1ccccc1O | > 100 | > 100 | > 100 | > 100 | > 100 | > 100 | > 100 | > 100 | > 100 | – | – | – | – | – | – | – | – | – | – | –
8 | O=C(Nc1ccccc1-c1nn(C(=S)Nc2ccccc2)c(=S)n(C(=S)Nc2ccccc2)c1=O)C(F)(F)F | > 100 | > 100 | > 100 | 98.2 | > 100 | 76 | > 88.1 | > 100 | > 96.3 | 57.9 | – | – | – | – | – | – | – | – | – | –
9 | COC(=O)C(CCCN1C(=O)c2ccccc2C1=O)C(=O)OC | > 100 | > 100 | > 100 | > 100 | > 100 | > 100 | > 100 | > 100 | > 100 | > 100 | – | – | – | – | – | – | – | – | – | –
10 | CC(C)(C)c1cc2c(O)c3cccc4c(=O)c5cccc6c5-c(c34)c2c(c1)c6=O | > 100 | > 100 | > 100 | > 100 | > 100 | > 100 | > 100 | – | > 100 | 96.5 | – | – | – | – | – | – | – | – | – | –
11 | Cc1ccc(/C=C/C(=O)CCN(C)C)cc1 | 26.8 | 33.7 | 25.6 | – | 37.2 | 49.4 | 35.1 | 87 | 30.2 | 38.1 | – | – | – | – | – | – | – | – | – | –
12 | C/C(=N/Nc1ccc([N+](=O)[O-])cc1[N+](=O)[O-])C(CC(C(=O)NCc1ccccc1)/C(C)=N\Nc1ccc([N+](=O)[O-])cc1[N+](=O)[O-])C(=O)NCc1ccccc1 (configuration not stated) | 20.4 | 29.4 | 20.4 | 32.9 | 37.5 | 25.8 | 12.4 | 31 | – | 7.98 | – | – | – | – | – | – | – | – | – | –
13 | Cc1cccc(C)c1NC(=O)CCCC(=O)C1/C(=N/NC(=O)CC#N)CCC/C1=N\NC(=O)CC#N (configuration not stated) | > 100 | > 100 | > 100 | > 100 | > 100 | > 100 | > 100 | > 100 | > 100 | > 100 | – | – | – | – | – | – | – | – | – | –
14 | COc1ccc(C)cc1-c1cc(Sc2ccccc2)c(-c2cc(C)ccc2OC)o1 | > 31.6 | > 31.6 | > 31.6 | > 31.6 | > 31.6 | > 31.6 | > 31.6 | > 31.6 | > 31.6 | > 31.6 | – | – | – | – | – | – | – | – | – | –
15 | CCC(=C/[C@H](C)C/C=C/C(C)=C/[C@@H](C)C(=O)[C@@H](C)[C@H](O)[C@@H](C)CC)/C=C/[C@H]1OC(=O)C=C[C@@H]1C | 0.327 | – | – | 5.21 | – | 0.554 | 0.655 | – | 1.03 | 1.2 | < 0.01 | < 0.01 | 4.56 | < 0.01 | < 0.01 | < 0.01 | 1.62 | < 0.01 | < 0.01 | < 0.01
16 | O=C(Nc1ccc(Oc2ccc(Nc3nc4ccccc4s3)cc2)cc1)Nc1ccc(Cl)c(C(F)(F)F)c1 | 7.98 | – | – | 5.45 | – | 3.33 | 5.27 | – | 5.35 | 3.28 | 2.05 | 2.47 | 7.22 | 1.62 | 0.73 | 2.07 | 7.55 | 1.39 | 1.41 | 2.3
17 | CCc1c(OC(C)=O)c2c(NC3OCC(OC(C)=O)C(OC(C)=O)C3OC(C)=O)nc(SC)nc2oc1=O (configuration not stated) | > 100 | > 100 | – | > 100 | > 100 | > 100 | > 100 | > 100 | > 100 | > 100 | – | – | – | – | – | – | – | – | – | –
18 | CCN1C(=O)N(c2ccccc2)C2NC(=S)N(/N=C/C=C/c3ccccc3OC)C21 (configuration not stated) | > 60.9 | – | – | > 100 | – | > 40 | > 41.4 | – | > 100 | > 85 | 0.0704 | 0.115 | > 34.4 | 0.174 | 2.15 | 0.0858 | > 100 | 0.3 | 0.0383 | 23.3
19 | C/C(CCn1[nH]c(=O)ccc1=O)=N\NC(=O)C(=O)NN | > 100 | > 100 | > 100 | > 100 | > 100 | > 100 | – | – | > 100 | – | – | – | – | – | – | – | – | – | – | –
20 | CC(=O)N(C(=O)CC(=O)N1N=C(c2ccccc2)C(N=Nc2ccccc2[N+](=O)[O-])C1=O)c1ccc(Cl)cc1 (configuration not stated) | > 10 | – | – | > 10 | – | > 10 | > 10 | – | > 10 | > 10 | – | – | > 10 | – | – | – | > 10 | – | – | –
21 | Cc1ccc(/C=C/C(=O)c2cccc3ccccc23)cc1 | 32.8 | – | 47.2 | 34 | 31 | 34.3 | 34.6 | 31.4 | 28.5 | – | – | – | – | – | – | – | – | – | – | –
